# Measured values: publication PMC10960024, “Diindoles produced from commensal microbiota metabolites function as endogenous CAR/Nr1i3 ligands” (Nature Communications, 2024)
# Tests used:
# [1] = molecular target: T1, hCAR (Homo sapiens, UniProt Q14994); assay: hCAR nuclear translocation in primary human hepatocytes (Ad/EYFP-hCAR); format: cell-based; settings: PHHs from two individuals; 10 µM, 8 h
# T1 construct: expressed in transfected cells; host or cells: primary human hepatocytes infected with Ad/EYFP-hCAR
# T1 sequence (Q14994 1-352): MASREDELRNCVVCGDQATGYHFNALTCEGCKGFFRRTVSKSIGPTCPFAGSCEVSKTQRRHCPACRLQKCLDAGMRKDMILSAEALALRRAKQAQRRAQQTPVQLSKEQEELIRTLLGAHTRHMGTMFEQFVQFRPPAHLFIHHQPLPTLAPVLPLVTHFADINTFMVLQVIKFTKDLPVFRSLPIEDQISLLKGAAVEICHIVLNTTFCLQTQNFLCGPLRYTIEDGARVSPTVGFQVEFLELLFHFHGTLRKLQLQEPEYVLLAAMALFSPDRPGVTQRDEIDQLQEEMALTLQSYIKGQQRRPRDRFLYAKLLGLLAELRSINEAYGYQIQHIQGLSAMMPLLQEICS
# Procedure: 24 h after seeding at 0.25 × 10^6 cells/well in 24-well biocoat plate, PHHs were infected with 2 µL of adenoviral enhanced yellow fluorescent protein-tagged hCAR (Ad/EYFP-hCAR) followed by treatment with 0.1% DMSO, phenobarbital (PB) (1 mM), DIM (10 µM) or DIE (10 µM) for 8 h. Cells were washed with phosphate-buffered saline and fixed for 30 min with 4% formaldehyde at room temperature and then stained with 4,6-diamidine-2-phenylindole dihydrochloride for 30 min after washing three times with phosphate-buffered saline. The subcellular localization of hCAR and nuclei were visualized using a Nikon Eclipse Ti-E inverted fluorescence microscope (Nikon, Edgewood, NY) in YFP/FITC and DAPI fluorescence channels. Compounds were added to the plate in triplicate and results analyzed as detailed below with z-factors calculated as previously described.
# [2] = molecular target: T2, hCAR LBD-SRC1 protein (Homo sapiens, UniProt Q14994); assay: Fluorescence thermal shift assay (TSA); format: binding; settings: diindoles at 12.5 µM; APO Tm 51.5 °C; means of triplicates
# T2 construct: The human CAR LBD (Lys^108 – Ser^352) was amplified by PCR from cDNA; HIS6; made in house; host or cells: E. coli BL21(DE3)
# T2 sequence (Q14994 108-352): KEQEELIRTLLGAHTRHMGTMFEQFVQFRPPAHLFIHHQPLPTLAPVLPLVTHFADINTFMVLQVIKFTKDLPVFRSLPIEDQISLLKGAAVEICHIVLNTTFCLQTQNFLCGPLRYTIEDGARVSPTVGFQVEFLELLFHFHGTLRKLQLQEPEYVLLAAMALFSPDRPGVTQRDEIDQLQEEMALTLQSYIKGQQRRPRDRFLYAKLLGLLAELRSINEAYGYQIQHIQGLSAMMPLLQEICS
# Procedure: Purified hCAR LBD-SRC1 protein was assayed in 137 mM NaCl, 2.7 mM KCl, 10 mM Na2HPO4, and 1.8 mM KH2PO4, 0.5% DMSO, pH 7.4, at a final concentration of 2.2 µM. SYPRO Orange was used at a final concentration of 10× (Invitrogen, S6650). Each sample was divided into three 25 µL replicates. Sample solutions were dispensed into 96-well optical reaction plates (Thermo Fisher Scientific, 4306737) and sealed with optical PCR plate sheets (Thermo Fisher Scientific, AB-1170). TSA experiments were carried out using a QuantStudio 12 K Flex Real Time PCR System (Applied Biosystems). The temperature was ramped up from 25 °C to 95 °C at a rate of 0.3 °C/min, and SYPRO orange fluorescence monitored. Raw fluorescence data and melting temperatures were determined using nonlinear regression curve fitting using GraphPad Prism 9.
# [3] = Liver histology (H&E); format: in vivo
# Procedure: 12–15 week-old C57BL/6 J mice were obtained from Jackson Laboratories and were housed on a standard 12 h light/dark cycle. Nr1i3^−/− mice with C57BL/6 J background were obtained from David Moore’s lab (PMID: 11057673) at Baylor College of Medicine, and used at 13–26 weeks of age. Wild-type male, female and Nr1i3^−/− male mice were used in this study, due to known sex-specific CAR activities. Mice were housed in groups of 2–5 mice per cage on a standard 12 h light/dark cycle and fed with rodent chow diet (Inotiv, Teklad rodent diet 2918). Temperature was maintained at 21 °C with a range of 21–24 °C and humidity at 16–51%. National Institute of Health guidelines for the care and use of laboratory animals were followed with all experiments performed as directed by the Institutional Animal Care and Use Committee at the University of Illinois, Urbana-Champaign (UIUC, IACUC protocol: 22183). Mice were acclimatized to the UIUC mouse facility for 2 weeks prior to experiments. DIM and DIE were dissolved in 5% DMSO in corn oil and injected intraperitoneally at 25 mg/kg once daily for three days. After 4 h of the third injection, mice were sacrificed to collect serum, livers and intestines. TCPOBOP was dissolved in corn oil and injected intraperitoneally at 3 mg/kg once and the livers collected after 3 days for further studies. When used to block CAR activity, 100 mg/kg androstenol was injected intraperitoneally 15 min prior to the first DIM or DIE treatment. RNA from mice livers was isolated using TRIzol (Invitrogen) reagent using the manufacturer’s instructions. 3–5 µg of RNA was used to synthesize cDNA with random primers (NEBioLabs) and Maxima Reverse Transcriptase kits (Thermo Fisher Scientific). cDNA was further diluted, and 50 ng was used for SYBR green (Thermo Fisher Scientific) based qRT-PCR. Relative gene expression was calculated by the delta Ct method and normalized to 36b4 levels as loading controls. qPCR primers for gene expression analysis are listed in Supplementary Table 3. […]
# [4] = Liver-to-body weight ratio after treatment; format: in vivo
# Procedure: 12–15 week-old C57BL/6 J mice were obtained from Jackson Laboratories and were housed on a standard 12 h light/dark cycle. Nr1i3^−/− mice with C57BL/6 J background were obtained from David Moore’s lab (PMID: 11057673) at Baylor College of Medicine, and used at 13–26 weeks of age. Wild-type male, female and Nr1i3^−/− male mice were used in this study, due to known sex-specific CAR activities. Mice were housed in groups of 2–5 mice per cage on a standard 12 h light/dark cycle and fed with rodent chow diet (Inotiv, Teklad rodent diet 2918). Temperature was maintained at 21 °C with a range of 21–24 °C and humidity at 16–51%. National Institute of Health guidelines for the care and use of laboratory animals were followed with all experiments performed as directed by the Institutional Animal Care and Use Committee at the University of Illinois, Urbana-Champaign (UIUC, IACUC protocol: 22183). Mice were acclimatized to the UIUC mouse facility for 2 weeks prior to experiments. DIM and DIE were dissolved in 5% DMSO in corn oil and injected intraperitoneally at 25 mg/kg once daily for three days. After 4 h of the third injection, mice were sacrificed to collect serum, livers and intestines. TCPOBOP was dissolved in corn oil and injected intraperitoneally at 3 mg/kg once and the livers collected after 3 days for further studies. When used to block CAR activity, 100 mg/kg androstenol was injected intraperitoneally 15 min prior to the first DIM or DIE treatment. RNA from mice livers was isolated using TRIzol (Invitrogen) reagent using the manufacturer’s instructions. 3–5 µg of RNA was used to synthesize cDNA with random primers (NEBioLabs) and Maxima Reverse Transcriptase kits (Thermo Fisher Scientific). cDNA was further diluted, and 50 ng was used for SYBR green (Thermo Fisher Scientific) based qRT-PCR. Relative gene expression was calculated by the delta Ct method and normalized to 36b4 levels as loading controls. qPCR primers for gene expression analysis are listed in Supplementary Table 3.
# [5] = molecular target: T3, His-tagged CAR-LBD-SRC1 fusion protein (Homo sapiens, UniProt Q14994); assay: Isothermal titration calorimetry (ITC); format: binding; settings: 25 °C; ligand 50 μM; mean of two independent experiments
# T3 construct: The human CAR LBD (Lys^108 – Ser^352) was amplified by PCR from cDNA; HIS6; made in house; host or cells: E. coli BL21(DE3)
# T3 sequence (Q14994 108-352): T2 sequence (Q14994 108-352)
# Procedure: Purified hCAR-SRC1 protein (200–250 µM) was dissolved in 120 μL of PBS and supplemented with 0.5% DMSO. All experiments were performed in a MicroCal Auto-iTC200 instrument (Malvern Panalytical, Marlvern, United Kingdom) at 25 °C. Ligands were used at a concentration of 50 μM. Protein was titrated into cells in a series of 19 injections (injection 1 = 0.4 µL, injection 2–19 = 2 µL) 180 s apart. Control experiments performed by injection of the potein into […] yielded insignificant heats of dilution, and heat responses were subtracted. Integrated heat effects were analyzed using Microcal Origin 7 software (Malvern Instruments).
compound,measurement,setting,value
"c1ccc2c(Cc3c[nH]c4ccccc34)c[nH]c2c1 [DIM, diindolylmethane]",hCAR nuclear relocation,[1],efficiently promote hCAR nuclear relocation
same,Tm,[2],57.1 °C
same,liver histology (H&E) findings,"[3]; mouse, in vivo","no increase in hepatocyte size, cytoplasmic swelling, obvious damage or inflammation"
same,liver weight / liver-to-body weight ratio,"[4]; mouse, in vivo",no significant changes
same,Kd,[5],3900 nM
"CC(c1c[nH]c2ccccc12)c1c[nH]c2ccccc12 [DIE, 3,3’-diindolylethane]",hCAR nuclear relocation,[1],efficiently promote hCAR nuclear relocation
same,Tm,[2],59.6 °C
same,liver histology (H&E) findings,[3]; after treatment,"no increase in hepatocyte size, cytoplasmic swelling, obvious damage or inflammation"
same,liver weight / liver-to-body weight ratio,"[4]; post-treatment, compared to control",no significant changes
same,Kd,[5],250 nM
